In general, EC50 refers to the midpoint of the concentration-response curve. As a reminder, the IC50 is the concentration that inhibits the measured activity by half.

The text below walks through data of US11952365B2, “Anti-viral compounds” (Aligos Therapeutics, Inc., priority 2020, dated 2024).

A short description of series [1]: Cytotoxicity plates without OC43 virus (cell-titer-glo). The class given is cell-based, human. Particulars: human; HeLa cells without OC43 virus, class symbols. The procedure, abridged: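 Run as a virus-free counterpart of the OC43 cytopathic-effect assay. Attached HeLa cells received compound dilutions in EMEM with 2% FBS and were kept 6 days at 33 °C. Cell viability was then measured by CellTiter-Glo luminescence.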

Series [2] deals with human beta-coronavirus OC43. In words: microbe, parasite or virus in culture. Particulars: Betacoronavirus 1, OC43, HeLa, 144 h, OC43 in HeLa cells, 6 days at 33° C., class symbols; read-out: EC50. The class given is cell-based.
Series [3] concerns SARS-CoV-2-GHB-03021/2020. The series can be described thus: microbe, parasite or virus in culture. Particulars: Severe acute respiratory syndrome coronavirus 2, Vero C1008, 96 h; read-out: VeroE6 + CP (EC50). The class given is cell-based.
The nature of series [4]: in vitro. Particulars: human.
A short description of series [5]: in vitro. Particulars: African green monkey, VeroE6 + CP (CC50), Vero E6-eGFP cells with CP-100356, absence of virus, MTS; numeric bounds.
The next series deals with T1, human cathepsin L (Homo sapiens, UniProt P07711).
T1 construct: purchased R&D Systems
In words: cathepsin L assay. Type of series: biochemical. Particulars: 10 pM human cathepsin L, Z-FR-AMC 2 μM, class symbols. The method, boiled down:
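Reactions began by adding 2 μM (final) Z-FR-AMC substrate to 10 pM human cathepsin L that had been preincubated 30 min with inhibitor. Kinetic AMC fluorescence at 355/460 nm over 30 min at 2-min intervals; four-parameter fitting gave IC50 values.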

Series [6] relates to SARS-CoV-2-GHB-03021/2020. In words: SARS-CoV-2 Infection Model in Huh7 Cells. The class given is cell-based. Particulars: Severe acute respiratory syndrome coronavirus 2, Huh-7, 96 h, SARS-CoV-2, day 4 p.i., MTS, class symbols.
The target of another series is 3CLpro (Severe acute respiratory syndrome coronavirus 2, UniProt P0DTD1). In words: SARS-CoV-2 3CLpro protease assay (duplex, SAMDI-MS). Type of series: biochemical. Further details: For the duplex assay, 3CLpro and HRV3C was added. Particulars: 3CLpro, 30 mins preincubation, class symbols; read-out: SARS-Cov-2 IC50.
In a further series the target is HRV3C (Human rhinovirus 14, UniProt P03303). The series can be described thus: HRV3C protease assay (duplex, SAMDI-MS). The class given is biochemical, HRV. Conditions: HRV3C, 30 mins preincubation, class symbols; read-out: HRV IC50. The procedure, abridged: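 Compounds are preincubated 30 min with the protease pair before substrate addition, and cleavage proceeds 30 min at room temperature. Product peptides are measured by SAMDI-MS relative to internal standards, with IC50 obtained from a four-parameter fit.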

With `CC(C)NC(=O)C(=O)C(C[C@@H]1CCCNC1=O)NC(=O)[C@@H]1[C@H]2CCC[C@H]2CN1C(=O)c1cc2ccccc2[nH]1` (stereo partly drawn) [Compound 18, (1S,3aR,6aS)-2-(1H-indole-2-carbonyl)-N-(4-(isopropylamino)-3,4-dioxo-1-((S)-2-oxopiperidin-3-yl)butan-2-yl)octahydrocyclopenta[c]pyrrole-1-carboxamide], in series [1], the CC50 at 6 days is above 10 µM. For the same compound, the concentration for a half-maximal effect (EC50) was 0.1 to 1 µM in series [2], 1 to 10 µM in series [3] and 1 to 10 µM in series [6]. The CC50 in the series “in vitro [4]” and in “in vitro [5]” was above 100 µM each time. Moreover, the IC50 on human cathepsin L was at least 10 µM; at 3CLpro it was 0.02 to 0.2 µM; at HRV3C it was 0.2 to 2 µM.
In series [1], `O=C(NCc1ccccc1)C(=O)C(C[C@@H]1CCNC1=O)NC(=O)[C@@H]1C[C@@H](C(F)(F)F)CN1C(=O)c1cc2ccccc2[nH]1` (stereo partly drawn) [Compound 19, N-benzyl-3-[[(2S,4R)-1-(1H-indole-2-carbonyl)-4-(trifluoromethyl)pyrrolidin-2-yl]formamido]-2-oxo-4-[(3S)-2-oxopyrrolidin-3-yl]butanamide] showed a CC50 at 6 days above 10 µM. Besides, the concentration giving a half-maximal response (EC50) was in the range of 0.1 to 1 µM in series [2], 1 to 10 µM in [3] and 1 to 10 µM in series [6]. The CC50 is above 10 µM in the series “in vitro [4]” and above 100 µM in “in vitro [5]”. In addition, the half-inhibitory concentration (IC50) lay within 0.1 to 1 µM on human cathepsin L, 0.2 to 2 µM at 3CLpro and 2 to 20 µM at HRV3C.
Compound `O=C(NCc1ccccc1)C(=O)[C@H](C[C@@H]1CCNC1=O)NC(=O)[C@@H]1C[C@]2(CN1C(=O)c1cc3ccccc3[nH]1)CC2(F)F` [Compound 22] had a CC50 at 6 days in series [1] above 10 µM. Besides, the 50% effective concentration (EC50) was 1 to 10 µM in series [2], 10 to 100 µM in series [3] and 1 to 10 µM in series [6]. Besides, the CC50 in the series “in vitro [4]” and in the series “in vitro [5]” was above 100 µM each time. Moreover, the IC50 lay within 0.1 to 1 µM on human cathepsin L, 0.2 to 2 µM on 3CLpro and 2 to 20 µM at HRV3C.
In the case of `O=C(NCc1ccccc1)C(=O)[C@H](C[C@@H]1CCNC1=O)NC(=O)[C@@H]1C[C@@]2(CN1C(=O)c1cc3ccccc3[nH]1)CC2(F)F` [Compound 23], the CC50 at 6 days in series [1] is above 10 µM. Further, the EC50 was 0.1 to 1 µM in series [2], 1 to 10 µM in [3] and 1 to 10 µM in series [6]. For the same compound, the CC50 in the series “in vitro [4]” and in the series “in vitro [5]” was above 100 µM throughout. Moreover, the concentration for half-maximal inhibition (IC50) lay within 0.1 to 1 µM against human cathepsin L, 0.02 to 0.2 µM at 3CLpro and 2 to 20 µM at HRV3C.
For the compound `O=C(NCc1ccccc1)C(=O)[C@H](C[C@@H]1CCNC1=O)NC(=O)[C@@H]1CC2(CCN1C(=O)c1cc3ccccc3[nH]1)CC2` [Compound 24], the CC50 at 6 days in series [1] is above 10 µM. The EC50 was in the range of 0.1 to 1 µM in series [2], 1 to 10 µM in series [3] and 1 to 10 µM in series [6]. The CC50 was above 10 µM in the series “in vitro [4]” and above 100 µM in “in vitro [5]”. Moreover, the IC50 is 0.1 to 1 µM on human cathepsin L, 0.02 to 0.2 µM on 3CLpro and 20 to 100 µM at HRV3C.
`C[C@@H]1C[C@@H](C(=O)N[C@@H](C[C@@H]2CCNC2=O)C(=O)C(=O)NCc2ccccc2)N(C(=O)c2cc3ccccc3[nH]2)C1` [Compound 25] showed a CC50 at 6 days in series [1] above 10 µM. The results for the EC50 in series [2], in series [3] and in [6] were 1 to 10 µM, 10 to 100 µM and 10 to 100 µM, respectively. Also, the CC50 in the series “in vitro [4]” and in the series “in vitro [5]” was above 100 µM in each case. Also, the concentration for half-maximal inhibition (IC50) against human cathepsin L is 0.1 to 1 µM; at 3CLpro it was 2 to 20 µM; at HRV3C it was 2 to 20 µM.
Compound `CC1(C)CCN(C(=O)c2cc3ccccc3[nH]2)[C@H](C(=O)NC(C[C@@H]2CCNC2=O)C(=O)C(=O)NCc2ccccc2)C1` (stereo partly drawn) [Compound 26, (2S)—N-(4-(benzylamino)-3,4-dioxo-1-((S)-2-oxopyrrolidin-3-yl)butan-2-yl)-1-(1H-indole-2-carbonyl)-4,4-dimethylpiperidine-2-carboxamide] displayed a CC50 at 6 days in series [1] above 10 µM. The EC50 in series [2] lay in the range of 0.1 to 1 µM; in series [3], 10 to 100 µM; in series [6] it was 10 to 100 µM. The CC50 in the series “in vitro [4]” and in the series “in vitro [5]” was above 100 µM throughout. Also, the IC50 against human cathepsin L was below 0.1 µM; at 3CLpro, 0.02 to 0.2 µM; at HRV3C, 2 to 20 µM.
For `COc1cccc2[nH]c(C(=O)N3C[C@@H]4CCC[C@@H]4[C@H]3C(=O)N[C@@H](C[C@@H]3CCNC3=O)C(=O)CO)cc12` [Compound 27, (1S,3aR,6aS)—N-[(2S)-4-hydroxy-3-oxo-1-[(3S)-2-oxopyrrolidin-3-yl]butan-2-yl]-2-(4-methoxy-1H-indole-2-carbonyl)-hexahydro-1H-cyclopenta[c]pyrrole-1-carboxamide], the CC50 at 6 days in [1] is above 10 µM. Further, the EC50 in [2] lay in the range of 0.1 to 1 µM; in [3], 1 to 10 µM; in series [6], 1 to 10 µM. Also, the CC50 in “in vitro [4]” and in the series “in vitro [5]” was above 100 µM each time. In addition, the IC50 against human cathepsin L is at least 10 µM; on 3CLpro it was below 0.02 µM; at HRV3C, 2 to 20 µM.
Consider `COc1cccc2[nH]c(C(=O)N3C[C@@H]4CCC[C@@H]4[C@H]3C(=O)N[C@@H](C[C@@H]3CCNC3=O)C(=O)COCc3ccccc3)cc12` [Compound 27A, (1S,3aR,6aS)—N-[(2S)-4-(benzyloxy)-3-oxo-1-[(3S)-2-oxopyrrolidin-3-yl]butan-2-yl]-2-(4-methoxy-1H-indole-2-carbonyl)-hexahydro-1H-cyclopenta[c]pyrrole-1-carboxamide], for which, in series [1], the CC50 at 6 days was above 10 µM. Also, the figures for the concentration for a half-maximal effect (EC50) in series [2], in series [3] and in series [6] were below 0.1 µM, 1 to 10 µM and 1 to 10 µM, respectively. Further, the figures for the CC50 in the series “in vitro [4]” and in the series “in vitro [5]” were above 10 µM and above 100 µM, respectively. Further, the half-maximal inhibitory concentration (IC50) against human cathepsin L was at least 10 µM; on 3CLpro it was 0.02 to 0.2 µM; on HRV3C, 2 to 20 µM.
Consider `CC[C@@H]1C[C@@H](C(=O)N[C@@H](C[C@@H]2CCNC2=O)C(=O)C(=O)NCc2ccccc2)N(C(=O)c2cc3ccccc3[nH]2)C1` [Compound 28], for which, in [1], the CC50 at 6 days is above 10 µM. Further, the results for the concentration giving a half-maximal response (EC50) in series [2], in [3] and in series [6] were 0.1 to 1 µM, 1 to 10 µM and below 1 µM, respectively. In addition, the CC50 is above 10 µM in “in vitro [4]” and above 100 µM in the series “in vitro [5]”. Besides, the IC50 was below 0.1 µM on human cathepsin L, 0.2 to 2 µM on 3CLpro and 2 to 20 µM on HRV3C.
`COc1cccc2[nH]c(C(=O)N3C[C@]4(C[C@H]3C(=O)NC(C=O)C[C@@H]3CCCNC3=O)CC4(F)F)cc12` (stereo partly drawn) [Compound 29, (3S,6S)-1,1-difluoro-5-(4-methoxy-1H-indole-2-carbonyl)-N-(1-oxo-3-((S)-2-oxopiperidin-3-yl)propan-2-yl)-5-azaspiro[2.4]heptane-6-carboxamide] yielded a CC50 at 6 days in series [1] above 10 µM. Further, the concentration for a half-maximal effect (EC50) in series [2], in series [3] and in [6] was 1 to 10 µM in each case. In addition, the CC50 in “in vitro [4]” and in the series “in vitro [5]” was above 100 µM in each case. Besides, the concentration for half-maximal inhibition (IC50) against human cathepsin L is 0.1 to 1 µM; at 3CLpro, 0.02 to 0.2 µM; on HRV3C, 0.02 to 0.2 µM.
In the case of `C=C[C@@H]1C[C@@H](C(=O)N[C@@H](C[C@@H]2CCNC2=O)C(=O)C(=O)NCc2ccccc2)N(C(=O)c2cc3ccccc3[nH]2)C1` [Compound 30], the CC50 at 6 days in series [1] was above 10 µM. For the same compound, the results for the EC50 in [2], in series [3] and in series [6] were 0.1 to 1 µM, 1 to 10 µM and 1 to 10 µM, respectively. The CC50 in the series “in vitro [4]” and in the series “in vitro [5]” was above 100 µM in each case. Also, the half-maximal inhibitory concentration (IC50) against human cathepsin L was below 0.1 µM; on 3CLpro it was 0.02 to 0.2 µM; at HRV3C, 0.2 to 2 µM.
`COc1cccc2[nH]c(C(=O)N3CC4(CC4)C[C@H]3C(=O)N[C@@H](C[C@@H]3CCNC3=O)C(=O)CO)cc12` [Compound 31, (6S)—N-[(2S)-4-hydroxy-3-oxo-1-[(3S)-2-oxopyrrolidin-3-yl]butan-2-yl]-5-(4-methoxy-1H-indole-2-carbonyl)-5-azaspiro[2.4]heptane-6-carboxamide] showed a CC50 at 6 days in series [1] above 10 µM. For the same compound, the half-maximal effective concentration (EC50) in series [2] is 0.1 to 1 µM; in [3] it was 1 to 10 µM; in series [6], 10 to 100 µM. The CC50 in “in vitro [4]” and in “in vitro [5]” was above 100 µM in each case. The half-maximal inhibitory concentration (IC50) is at least 10 µM at human cathepsin L, below 0.02 µM on 3CLpro and 20 to 100 µM on HRV3C.
